Measured values reported in patent US12398132B2, “Derivatives of 4-(imidazo[1,2-a]pyridin-3-yl)-n-(pyridinyl)pyrimidin-2-amine as therapeutic agents” (AUCENTRA THERAPEUTICS PTY LTD, priority 2019, dated 2025).
Substitutions are numbered along the chain they refer to. Where two headings read alike, the source gives them in different places.

What was measured:
[1] = system: MV-4-11; experiment: Proliferation assay (resazurin/MTT), MV-4-11; format: cell-based; conditions: Homo sapiens, MV4-11, read-out: 72 h Growth inhibition GI50, MV-4-11 cells
[2] = target: CDK6/D3 (Homo sapiens, UniProt Q00534); experiment: ADP Glo kinase assay, CDK6/D3; format: biochemical; conditions: CDK6D3; for Ki: apparent Ki calculated from Km (ATP) and IC50, read-out: CDK inhibition Ki; for remaining activity at 1 µM: compound at 1 μM (values marked *), read-out: residual enzymatic activity (%) at 1 μM*
Protocol: Inhibition of FLT3(WT), FLT3(ITD) and FLT3(D835Y) and CDKs were determined using ADP Glo Kinase assays (Promega Corporation, Madison, WI, USA). […] Similarly, kinase reaction for CDK4/D1 and CDK6/D3 was performed with reaction buffer (40 nM Tris base pH 7.5, 20 mM MgCl2, 0.4 mM DTT), 0.1 mg/ml BSA and RB-CTF substrate (retinoblastoma protein1 C-terminal fraction). For CDK9/CyclinT1, the kinase reaction was performed with the standard assay buffer and Kinase Dilution Buffer and RBER-IRStide substrate. Half-maximal inhibition (IC50) values were calculated using a 4-parameter logistic non-linear regression model with Graphpad prism (Version 6.0). Apparent inhibition constants (Ki) values were calculated from Km (ATP) and IC50 values for the respective kinases.

[3] = target: T1, CDK7HMAT1 (Homo sapiens, UniProt P50613); experiment: biochemical;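 also: kinase activity measured with an ADP-Glo luminescent kinase assay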
Protocol: (§1) Inhibition of FLT3(WT), FLT3(ITD) and FLT3(D835Y) and CDKs were determined using ADP Glo Kinase assays (Promega Corporation, Madison, WI, USA). […] The kinase reactions are run for an optimised time period (FLT3-WT: 120 min, FLT3-ITD: 80 min, FLT3-D835Y: 100 min) at room temperature and then the reaction was stopped by adding 5 μL of ADP Glo reagent. […] Positive and negative controls were performed in 0.5% DMSO in the presence and absence of each FLT3 kinase, respectively. […] Half-maximal inhibition (IC50) values were calculated using a 4-parameter logistic non-linear regression model with Graphpad prism (Version 6.0). Apparent inhibition constants (Ki) values were calculated from Km (ATP) and IC50 values for the respective kinases.

[4] = target: CDK9/CyclinT1 (Homo sapiens, UniProt P50750); experiment: ADP Glo kinase assay, CDK9/CyclinT1; format: biochemical; conditions: CDK9T1; for Ki: apparent Ki calculated from Km (ATP) and IC50, read-out: CDK inhibition Ki
[5] = target: T2, CDK1B (Homo sapiens, UniProt P06493); experiment: biochemical
[6] = target: CDK2E1 (Homo sapiens, UniProt P24941)
[7] = system: U937; experiment: Proliferation assay (resazurin/MTT), U937; format: cell-based; conditions: Homo sapiens, U-937, read-out: 72 h Growth inhibition GI50, U937 cells
[8] = target: CDK4/D1 (Homo sapiens, UniProt P11802); experiment: ADP Glo kinase assay, CDK4/D1; format: biochemical; conditions: CDK4D1; for Ki: apparent Ki calculated from Km (ATP) and IC50, read-out: CDK inhibition Ki; for remaining activity at 10 µM: compound at 10 μM, read-out: residual enzymatic activity (%) at 10 μM; for remaining activity at 1 µM: compound at 1 μM (values marked *), read-out: residual enzymatic activity (%) at 1 μM*
[9] = target: T1, CDK7HMAT1
Protocol: as §1

[10] = target: T2, CDK1B
[11] = target: T3, FLT3(WT) (Homo sapiens, UniProt P36888); experiment: ADP Glo kinase assay, FLT3(WT); format: biochemical; conditions: apparent Ki calculated from Km (ATP) and IC50, read-out: FLT3 inhibition Ki
T3 sequence (P36888 27-993): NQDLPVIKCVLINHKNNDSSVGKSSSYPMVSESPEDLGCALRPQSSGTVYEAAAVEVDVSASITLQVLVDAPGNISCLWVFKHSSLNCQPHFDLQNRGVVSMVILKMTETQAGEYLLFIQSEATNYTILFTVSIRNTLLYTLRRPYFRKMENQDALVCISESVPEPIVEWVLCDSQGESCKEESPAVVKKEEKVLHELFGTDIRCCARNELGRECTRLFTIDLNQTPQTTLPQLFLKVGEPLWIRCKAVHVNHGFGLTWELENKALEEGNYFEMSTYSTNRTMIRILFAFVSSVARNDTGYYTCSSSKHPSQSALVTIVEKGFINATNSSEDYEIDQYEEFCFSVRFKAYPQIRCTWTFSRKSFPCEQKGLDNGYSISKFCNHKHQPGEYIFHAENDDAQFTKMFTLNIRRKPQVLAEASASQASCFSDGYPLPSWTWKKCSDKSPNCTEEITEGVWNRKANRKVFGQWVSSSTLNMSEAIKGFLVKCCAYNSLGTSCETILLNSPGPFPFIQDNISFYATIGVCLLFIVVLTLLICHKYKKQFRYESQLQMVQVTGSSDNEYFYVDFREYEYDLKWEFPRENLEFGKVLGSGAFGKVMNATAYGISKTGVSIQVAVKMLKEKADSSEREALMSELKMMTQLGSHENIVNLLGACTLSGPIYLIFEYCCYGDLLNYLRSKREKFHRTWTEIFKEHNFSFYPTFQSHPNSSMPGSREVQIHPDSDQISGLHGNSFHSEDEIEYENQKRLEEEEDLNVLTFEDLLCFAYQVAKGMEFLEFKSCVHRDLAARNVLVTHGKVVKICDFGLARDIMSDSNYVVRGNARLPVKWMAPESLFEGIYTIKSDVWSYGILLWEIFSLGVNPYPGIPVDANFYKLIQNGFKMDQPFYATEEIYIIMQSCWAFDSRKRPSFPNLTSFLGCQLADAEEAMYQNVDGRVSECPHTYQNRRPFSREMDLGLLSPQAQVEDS

[12] = target: T4, FLT3(ITD) (Homo sapiens, UniProt P36888); experiment: ADP Glo kinase assay, FLT3(ITD); format: biochemical; conditions: apparent Ki calculated from Km (ATP) and IC50, read-out: FLT3 inhibition Ki
T4 sequence (P36888 1-993): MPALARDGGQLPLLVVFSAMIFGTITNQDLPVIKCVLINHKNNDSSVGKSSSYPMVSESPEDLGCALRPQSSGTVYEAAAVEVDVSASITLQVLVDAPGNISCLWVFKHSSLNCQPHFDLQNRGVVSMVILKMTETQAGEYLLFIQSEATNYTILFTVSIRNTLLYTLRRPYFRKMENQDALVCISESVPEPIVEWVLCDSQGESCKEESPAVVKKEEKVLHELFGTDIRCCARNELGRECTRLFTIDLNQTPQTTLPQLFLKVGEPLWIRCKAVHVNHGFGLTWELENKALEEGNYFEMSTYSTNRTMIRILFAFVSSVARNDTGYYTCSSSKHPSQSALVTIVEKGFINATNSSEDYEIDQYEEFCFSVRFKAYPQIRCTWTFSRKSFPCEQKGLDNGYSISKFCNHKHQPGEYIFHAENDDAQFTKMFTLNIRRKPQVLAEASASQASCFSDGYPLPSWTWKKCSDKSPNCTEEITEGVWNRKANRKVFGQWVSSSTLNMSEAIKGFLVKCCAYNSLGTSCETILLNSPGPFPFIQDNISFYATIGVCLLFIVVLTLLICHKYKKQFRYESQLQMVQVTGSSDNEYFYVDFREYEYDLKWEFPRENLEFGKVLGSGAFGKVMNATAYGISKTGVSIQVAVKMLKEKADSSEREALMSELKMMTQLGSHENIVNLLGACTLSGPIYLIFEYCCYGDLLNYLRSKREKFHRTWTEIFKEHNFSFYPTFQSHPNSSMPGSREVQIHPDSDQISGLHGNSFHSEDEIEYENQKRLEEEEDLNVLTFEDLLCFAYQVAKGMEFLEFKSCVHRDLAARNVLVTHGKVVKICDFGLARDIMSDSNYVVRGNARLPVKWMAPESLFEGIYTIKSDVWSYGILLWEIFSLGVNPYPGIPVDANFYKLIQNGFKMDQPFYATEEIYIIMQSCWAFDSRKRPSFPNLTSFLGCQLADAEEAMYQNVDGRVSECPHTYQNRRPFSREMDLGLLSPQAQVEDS
Protocol: as §1

[13] = target: T5, FLT3(D835Y) (Homo sapiens, UniProt P36888, D835Y); experiment: ADP Glo kinase assay, FLT3(D835Y); format: biochemical; conditions: apparent Ki calculated from Km (ATP) and IC50, read-out: FLT3 inhibition Ki
T5 sequence (P36888 27-993 D835Y): T3 sequence (P36888 27-993) with D809Y
Protocol: as §1

[14] = compound at 10 μM, read-out: residual enzymatic activity (%) at 10 μM

Sequence of CDK4/D1 (P11802 whole entry, species assumed): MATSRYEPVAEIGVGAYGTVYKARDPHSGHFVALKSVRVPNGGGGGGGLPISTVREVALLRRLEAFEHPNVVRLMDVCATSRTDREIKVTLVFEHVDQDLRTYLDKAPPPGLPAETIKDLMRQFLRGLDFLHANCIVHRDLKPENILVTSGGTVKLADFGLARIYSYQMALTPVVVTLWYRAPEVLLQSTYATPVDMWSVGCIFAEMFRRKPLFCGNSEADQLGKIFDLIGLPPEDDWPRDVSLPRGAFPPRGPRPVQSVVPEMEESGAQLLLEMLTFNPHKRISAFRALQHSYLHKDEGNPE
Sequence of CDK4/D1 (P24385 whole entry partner, species assumed): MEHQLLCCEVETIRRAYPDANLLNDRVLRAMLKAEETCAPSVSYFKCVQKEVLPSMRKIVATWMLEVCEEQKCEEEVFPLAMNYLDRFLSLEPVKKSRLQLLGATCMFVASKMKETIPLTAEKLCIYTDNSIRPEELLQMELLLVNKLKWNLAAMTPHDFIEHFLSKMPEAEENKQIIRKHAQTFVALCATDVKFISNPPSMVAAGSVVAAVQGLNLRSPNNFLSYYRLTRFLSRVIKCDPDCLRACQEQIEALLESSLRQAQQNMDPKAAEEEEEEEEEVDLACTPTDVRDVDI
T1 sequence (P50613 whole entry): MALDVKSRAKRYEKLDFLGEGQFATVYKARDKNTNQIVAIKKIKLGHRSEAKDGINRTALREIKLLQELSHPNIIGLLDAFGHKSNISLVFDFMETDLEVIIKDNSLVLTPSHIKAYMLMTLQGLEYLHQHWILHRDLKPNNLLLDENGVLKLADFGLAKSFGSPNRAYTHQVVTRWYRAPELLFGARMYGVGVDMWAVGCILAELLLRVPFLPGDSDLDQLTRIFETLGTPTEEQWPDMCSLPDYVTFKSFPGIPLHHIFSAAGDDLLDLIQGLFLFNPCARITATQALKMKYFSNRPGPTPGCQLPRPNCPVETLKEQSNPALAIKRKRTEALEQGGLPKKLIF
T1 sequence (P51946 whole entry partner): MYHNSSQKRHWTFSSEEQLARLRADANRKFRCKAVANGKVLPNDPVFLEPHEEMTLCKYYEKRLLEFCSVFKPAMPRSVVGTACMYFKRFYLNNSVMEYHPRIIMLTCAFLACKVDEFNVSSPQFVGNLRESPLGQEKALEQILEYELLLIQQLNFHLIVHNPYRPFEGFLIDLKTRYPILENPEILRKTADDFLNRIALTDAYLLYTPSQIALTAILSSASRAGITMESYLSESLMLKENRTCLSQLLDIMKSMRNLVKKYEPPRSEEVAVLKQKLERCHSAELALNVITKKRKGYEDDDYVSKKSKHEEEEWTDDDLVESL
T1 sequence (P51948 whole entry partner): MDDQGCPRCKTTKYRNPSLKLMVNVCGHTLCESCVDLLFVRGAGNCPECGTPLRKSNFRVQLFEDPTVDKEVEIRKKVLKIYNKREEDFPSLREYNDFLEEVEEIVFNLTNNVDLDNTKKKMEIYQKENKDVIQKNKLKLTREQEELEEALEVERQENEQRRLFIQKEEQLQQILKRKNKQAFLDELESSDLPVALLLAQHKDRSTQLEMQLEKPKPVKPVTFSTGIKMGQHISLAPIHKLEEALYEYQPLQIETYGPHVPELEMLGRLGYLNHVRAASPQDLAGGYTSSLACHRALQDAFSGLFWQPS
Sequence of CDK6/D3 (Q00534 whole entry, species assumed): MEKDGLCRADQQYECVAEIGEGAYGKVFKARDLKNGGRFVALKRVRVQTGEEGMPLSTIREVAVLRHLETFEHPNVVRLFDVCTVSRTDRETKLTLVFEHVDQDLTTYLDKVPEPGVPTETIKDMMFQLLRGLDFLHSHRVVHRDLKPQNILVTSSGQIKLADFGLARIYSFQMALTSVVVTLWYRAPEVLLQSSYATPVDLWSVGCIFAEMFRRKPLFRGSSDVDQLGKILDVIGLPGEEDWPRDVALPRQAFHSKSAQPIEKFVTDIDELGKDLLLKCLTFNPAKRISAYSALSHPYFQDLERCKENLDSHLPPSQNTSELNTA
Sequence of CDK6/D3 (P30281 whole entry partner, species assumed): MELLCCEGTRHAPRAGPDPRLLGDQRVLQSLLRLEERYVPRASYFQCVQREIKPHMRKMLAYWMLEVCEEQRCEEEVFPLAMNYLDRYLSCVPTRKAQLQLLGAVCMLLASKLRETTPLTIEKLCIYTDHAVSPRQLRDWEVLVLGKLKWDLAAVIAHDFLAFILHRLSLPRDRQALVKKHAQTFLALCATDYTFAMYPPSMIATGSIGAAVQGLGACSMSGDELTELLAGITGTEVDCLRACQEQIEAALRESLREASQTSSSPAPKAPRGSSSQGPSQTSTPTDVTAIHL
T2 sequence (P06493 whole entry): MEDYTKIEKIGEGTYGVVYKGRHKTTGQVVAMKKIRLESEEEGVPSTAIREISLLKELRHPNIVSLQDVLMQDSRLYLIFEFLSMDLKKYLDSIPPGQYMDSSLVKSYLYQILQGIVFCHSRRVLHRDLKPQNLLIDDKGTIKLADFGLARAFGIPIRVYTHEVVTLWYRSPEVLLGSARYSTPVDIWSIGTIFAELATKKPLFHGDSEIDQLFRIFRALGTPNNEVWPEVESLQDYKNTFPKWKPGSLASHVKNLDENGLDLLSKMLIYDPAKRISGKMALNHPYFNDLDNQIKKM
T2 sequence (P14635 whole entry partner): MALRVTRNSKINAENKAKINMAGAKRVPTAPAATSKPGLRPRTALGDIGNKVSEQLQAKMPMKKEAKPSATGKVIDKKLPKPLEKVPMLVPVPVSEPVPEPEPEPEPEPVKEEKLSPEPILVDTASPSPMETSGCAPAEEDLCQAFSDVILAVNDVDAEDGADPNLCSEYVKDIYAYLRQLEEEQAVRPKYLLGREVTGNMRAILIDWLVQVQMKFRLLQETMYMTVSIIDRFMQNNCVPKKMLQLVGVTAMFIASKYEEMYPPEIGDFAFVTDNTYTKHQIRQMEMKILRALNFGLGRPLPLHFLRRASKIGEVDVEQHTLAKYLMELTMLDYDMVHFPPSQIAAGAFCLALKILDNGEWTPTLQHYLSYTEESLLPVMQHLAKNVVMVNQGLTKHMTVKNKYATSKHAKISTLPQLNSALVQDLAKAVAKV
Sequence of CDK9/CyclinT1 (P50750 whole entry, species assumed): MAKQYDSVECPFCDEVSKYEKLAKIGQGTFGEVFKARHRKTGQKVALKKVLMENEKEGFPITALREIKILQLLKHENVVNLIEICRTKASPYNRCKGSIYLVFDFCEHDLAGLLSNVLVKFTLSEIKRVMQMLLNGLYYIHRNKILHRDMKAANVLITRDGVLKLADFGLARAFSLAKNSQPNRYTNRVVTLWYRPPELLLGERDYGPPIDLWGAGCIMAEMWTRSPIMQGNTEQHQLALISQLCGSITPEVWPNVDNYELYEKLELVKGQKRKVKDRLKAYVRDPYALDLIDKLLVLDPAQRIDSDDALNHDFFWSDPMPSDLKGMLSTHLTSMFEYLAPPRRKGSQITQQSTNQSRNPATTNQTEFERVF
Sequence of CDK9/CyclinT1 (O60563 whole entry partner, species assumed): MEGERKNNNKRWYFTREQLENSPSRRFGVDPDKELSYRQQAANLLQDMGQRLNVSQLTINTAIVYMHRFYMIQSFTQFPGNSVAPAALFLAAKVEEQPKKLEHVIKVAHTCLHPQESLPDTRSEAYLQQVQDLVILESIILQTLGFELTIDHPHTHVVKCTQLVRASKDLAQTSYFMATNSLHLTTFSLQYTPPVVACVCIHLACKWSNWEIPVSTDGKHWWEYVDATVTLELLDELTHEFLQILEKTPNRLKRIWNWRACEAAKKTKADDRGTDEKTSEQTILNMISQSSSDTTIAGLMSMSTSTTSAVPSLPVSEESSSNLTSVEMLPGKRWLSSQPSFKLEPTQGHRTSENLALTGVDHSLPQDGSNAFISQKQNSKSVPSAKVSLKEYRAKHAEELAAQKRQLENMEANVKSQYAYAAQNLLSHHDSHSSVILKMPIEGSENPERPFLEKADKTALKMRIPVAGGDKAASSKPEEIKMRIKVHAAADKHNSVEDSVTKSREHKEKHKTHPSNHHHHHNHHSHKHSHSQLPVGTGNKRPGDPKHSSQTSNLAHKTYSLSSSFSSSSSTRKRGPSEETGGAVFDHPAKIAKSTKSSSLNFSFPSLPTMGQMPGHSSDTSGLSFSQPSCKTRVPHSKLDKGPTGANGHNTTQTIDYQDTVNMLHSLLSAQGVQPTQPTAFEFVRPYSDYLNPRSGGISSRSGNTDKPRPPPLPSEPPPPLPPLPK

| SMILES | GI50 [1] | Ki [2] | Ki [3] | Ki [4] | Ki [5] | activity ([6]; 1 µM) | GI50 [7] | Ki [8] | remaining activity at 1 µM [2] | activity ([10]; 1 µM) | remaining activity at 1 µM [8] | further results |
| --- | --- | --- | --- | --- | --- | --- | --- | --- | --- | --- | --- | --- |
| c1ccn2c(-c3ccnc(Nc4ccc(N5CCNCC5)cn4)n3)cnc2c1 [Cmpd 1, 4-(Imidazo[1,2-a]pyridin-3-yl)-N-(5-(piperazin-1-yl)pyridin-2-yl)pyrimidin-2-amine] | 9 nM | 900 nM | 1190 nM | 37 nM | 1340 nM | 69% | 497 nM | 116 nM | – | – | – | – |
| c1ccn2c(-c3ccnc(Nc4ccc(N5CCOCC5)cn4)n3)cnc2c1 [Cmpd 4, 4-(Imidazo[1,2-a]pyridin-3-yl)-N-(5-morpholinopyridin-2-yl)pyrimidin-2-amine] | 38 nM | 2900 nM | – | – | 1480 nM | 72% | 3360 nM | – | – | – | – | activity ([9]; 10 µM): 74%; remaining activity at 10 µM [4, 14]: 28%; remaining activity at 10 µM [8]: 38% |
| CC(=O)N1CCN(c2ccc(Nc3nccc(-c4cnc5ccc(-c6cn[nH]c6)cn45)n3)nc2)CC1 [Cmpd 24, 1-(4-(6-((4-(6-(1H-Pyrazol-4-yl)imidazo[1,2-a]pyridin-3-yl)pyrimidin-2-yl)amino)pyridin-3-yl)piperazin-1-yl)ethan-1-one] | 25 nM | – | 1190 nM | 125 nM | – | 24% | 466 nM | – | – | – | – | remaining activity at 10 µM [2, 14]: 61%; activity ([10]; 10 µM): 35%; remaining activity at 10 µM [8]: 66% |
| CS(=O)(=O)N1CCN(c2ccc(Nc3nccc(-c4cnc5ccc(Br)cn45)n3)nc2)CC1 [Cmpd 50, 4-(6-Bromoimidazo[1,2-a]pyridin-3-yl)-N-(5-(4-(methylsulfonyl)piperazin-1-yl)pyridin-2-yl)pyrimidin-2-amine] | 7 nM | – | – | – | – | 74% | 127 nM | – | 63% | 62% | 40% | activity ([9]; 1 µM): 57%; remaining activity at 1 µM ([4]; compound at 1 μM (values marked *), read-out: residual enzymatic activity (%) at 1 μM*): 48%; Ki [11]: 35 nM; Ki [12]: 180 nM; Ki [13]: 15 nM |

Second part, led by results:

| GI50 [1] | Ki [2] | Ki [3] | Ki [4] | Ki [5] | activity ([6]; 1 µM) | GI50 [7] | Ki [8] | remaining activity at 1 µM [2] | activity ([10]; 1 µM) | remaining activity at 1 µM [8] | SMILES | further results |
| --- | --- | --- | --- | --- | --- | --- | --- | --- | --- | --- | --- | --- |
| 20 nM | > 10000 nM | – | 519 nM | 3460 nM | – | 2850 nM | 1970 nM | – | – | – | CC(=O)N1CCN(c2ccc(Nc3nccc(-c4cnc5ccccn45)n3)nc2)CC1 [Cmpd 3, 1-(4-(6-((4-(Imidazo[1,2-a]pyridin-3-yl)pyrimidin-2-yl)amino)pyridin-3-yl)piperazin-1-yl)ethan-1-one] | activity ([6]; 10 µM): 49% |
| 6 nM | 2400 nM | – | 163 nM | 2450 nM | 52% | 1470 nM | 419 nM | – | – | – | CC(=O)N1CCN(c2ccc(Nc3nccc(-c4cnc5ccc(C)cn45)n3)nc2)CC1 [Cmpd 13, 1-(4-(6-((4-(6-Methylimidazo[1,2-a]pyridin-3-yl)pyrimidin-2-yl)amino)pyridin-3-yl)piperazin-1-yl)ethan-1-one] | activity ([9]; 10 µM): 77% |
| 5 nM | – | 186 nM | 71 nM | – | 40% | 765 nM | – | 52% | 95% | 75% | CC(=O)N1CCN(c2ccc(Nc3nccc(-c4cnc5ccc(-c6ccoc6)cn45)n3)nc2)CC1 [Cmpd 25, 1-(4-(6-((4-(6-(Furan-3-yl)imidazo[1,2-a]pyridin-3-yl)pyrimidin-2-yl)amino)pyridin-3-yl)piperazin-1-yl)ethan-1-one] | – |
| 6 nM | – | – | 475 nM | – | 75% | 3570 nM | – | 70% | 92% | 70% | CC(=O)N1CCN(c2ccc(Nc3nccc(-c4cnc5ccc(I)cn45)n3)nc2)CC1 [Cmpd 43, 1-(4-(6-((4-(6-Iodoimidazo[1,2-a]pyridin-3-yl)pyrimidin-2-yl)amino)pyridin-3-yl)piperazin-1-yl)ethan-1-one] | activity ([9]; 1 µM): 75%; Ki [11]: 38 nM; Ki [12]: 44 nM; Ki [13]: 18 nM |
